From BigSolDB 2.1

Cn1cc[nH]c1=S
solubility (mole fraction)
Details	278.15 K	283.15 K	288.15 K	293.15 K	298.15 K	303.15 K	308.15 K	313.15 K	318.15 K	323.15 K
in 1,4-dioxane	0.0435	0.0517	0.0616	0.0731	0.0874	0.102	0.119	0.141	0.164	0.187
in THF	0.0475	0.0542	0.0634	0.0733	0.0841	0.0972	0.112	0.13	0.148	0.169
in acetone	0.0425	0.0517	0.0623	0.0749	0.0889	0.107	0.124	0.147	0.167	0.193
in acetonitrile	0.016	0.0216	0.0267	0.0338	0.0416	0.0531	0.0668	0.0818	0.101	0.121
in ethanol	0.0275	0.0335	0.0417	0.0519	0.0645	0.0795	0.0968	0.117	0.139	0.167
in ethyl acetate	0.0159	0.018	0.0198	0.022	0.0246	0.0273	0.0306	0.0339	0.038	0.0428
in isobutanol	0.019	0.0233	0.0289	0.0365	0.0439	0.0542	0.0656	0.0809	0.0966	0.117
in isopropanol	0.0168	0.0225	0.029	0.0381	0.0478	0.0621	0.0788	0.0985	0.123	0.152
in methanol	0.06	0.0711	0.084	0.0996	0.125	0.148	0.177	0.21	0.244	0.283
in methyl acetate	0.0288	0.0337	0.0391	0.0452	0.0521	0.0593	0.07	0.0817	0.0936	0.107
in n-butanol	0.0194	0.026	0.0328	0.0414	0.0528	0.0665	0.0823	0.102	0.124	0.153
in n-propanol	0.0261	0.032	0.0385	0.0468	0.0558	0.0663	0.0786	0.0931	0.111	0.13
